Each block holds one compound with its values, some of them ahead of it.
Legend:
[1] = Pharmacokinetic study in rabbits after single ocular instillation; details: rabbit, choroid/retina, 1.5 h, regorafenib 24.1 mg/mL or pazopanib 5.0 mg/mL, 0.02 mL
Procedure: (§1) In the rabbit and monkey studies, sample preparation and determination of drug concentrations were performed in the same manner for the rat pharmacokinetic study.

[2] = Pharmacokinetic study in rats after single ocular instillation; details: rat; for AUC0‐t / AUC0‐∞ / AUC: single ocular instillation, 10 μL/eye; for AUC0‐t / AUC0‐∞ / Concentration / AUC: regorafenib 21.2 mg/mL or pazopanib 4.9 mg/mL; for Concentration: choroid/sclera, 0.01 mL; for choroid/sclera concentration: 0.5 hours after administration; for concentration at 0.5 h: topical; for half-life / Tmax / AUC: topical or ocular;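 for all read-outs here: drug levels in plasma and homogenized choroid/sclera and retina quantified by LC/MS/MS, parameters derived from mean concentrations, t1/2 from terminal log-linear slope, AUC via linear trapezoids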
Procedure: (§2) The both eyes (dosed eye and nondosed eye) were collected and washed by water, and then the eye tissues (the choroid/sclera and retina) were collected.
(§3) An aliquot of acetonitrile solution containing an internal standard was added to the plasma sample and mixed. After centrifugation, supernatant was mixed with 10 mmol/L ammonium acetate solution to prepare a sample for determination of drug concentration by liquid chromatography‐tandem mass spectrometry (LC/MS/MS). An aliquot of 50 vol% methanol was added to the eye tissues, and then homogenized by a beads shocker to prepare homogenate samples. An aliquot of the acetonitrile solution containing the internal standard was added to the homogenate samples and mixed. After centrifugation, supernatant was mixed with 10 mmol/L ammonium acetate solution to prepare samples for the determination of drug concentrations.
(§4) LC/MS/MS system consisted of ACQUITY UPLC system (Waters Corporation) and QTRAP6500 (AB SCIEX) was used for the determination of drug concentrations. The prepared samples were separated by ACQUITY UPLC peptide BEH C18 column (1.7 µm, 2.1 × 50 mm) (Waters Corporation, Milford, MA), with mobile phase A: 10 mmol/L ammonium acetate solution and mobile phase B: acetonitrile. After injection of the prepared samples to LC/MS/MS, the samples were eluted (0.2 mL/minutes) with 30% B followed 0.10 minutes isocratic period; 3.90 minutes linear gradient to 70% B; 0.01 minutes linear gradient to 30% B; and 1.49 minutes isocratic period. Multiple reaction monitoring was performed by using an atmospheric pressure chemical ionization probe, and monitor ion of regorafenib and pazopanib were 482.958/270.000 (m/z, Q1/Q3) and 438.184/356.900 (m/z, Q1/Q3), respectively.
(§5) The pharmacokinetic parameters of regorafenib and pazopanib in the eye tissues and plasma were calculated by average concentrations in the eye tissues and plasma. Maximum concentration (Cmax) and the time to reach Cmax (tmax) were obtained directly from the observed values. Log‐transformed concentrations were plotted against time. The elimination rate constant (ke) was estimated by linear least‐squares method using the last 2 or 3 observed data points. Apparent half‐life (t1/2) was obtained as ln2/ke. Area under the concentration vs time curve (AUC) from time 0 to the observed data point (AUC0‐t) was calculated using the linear trapezoidal method. AUC after the last data point was estimated by extrapolating with the ke and added up with AUC0‐t to calculate AUC from time 0 to infinity (AUC0‐∞).

[3] = Pharmacokinetic study (ocular distribution) in monkeys after single ocular instillation; details: monkey, 4 h, regorafenib 17.1 mg/mL (50 μL/eye) or pazopanib 5.0 mg/mL (30 μL/eye)
Procedure: as §1

[4] = in vivo; details: rat, topical or ocular; for half-life: t1/2, rat
Procedure: as §2, §3, §4, §5

[5] = test system: neovascular AMD; details: eye‐drop formulations; cited from earlier work
[6] = test system: laser‐induced CNV; test: Laser‐induced monkey CNV model; details: for Percentage of Grade 4 lesion: aflibercept 500 μg/eye intravitreal once, mean of 6 eyes; for Change in incidence of Grade 4 lesions between Day‐1 and Day35: Fisher's exact test, Day‐1 vs Day 35
[7] = test system: melanin; parameters: method as in PMID 23385800; details: cited from earlier work
[8] = test system: choroidal neovascularization; parameters: method as in PMID 21620822; details: after ocular instillation in rats; cited from earlier work
[9] = test system: VEGF‐induced fluorescein leakage; parameters: method as in PMID 23169884; details: ocular instillation in rabbits; cited from earlier work
[10] = in vivo, choroid/sclera of dosed eye, single ocular instillation, regorafenib 21.2 mg/mL or pazopanib 4.9 mg/mL, 10 μL/eye
[11] = in vivo, plasma, single ocular instillation, regorafenib 21.2 mg/mL or pazopanib 4.9 mg/mL, 10 μL/eye
[12] = choroid/sclera of the dosed eye

Compound: CNC(=O)c1cc(Oc2ccc(NC(=O)Nc3ccc(Cl)c(C(F)(F)F)c3)c(F)c2)ccn1.O [Regorafenib, 4‐[4‐ ({[4‐Chloro‐3‐(trifluoromethyl)phenyl]carbamoyl}amino)‐3‐fluorophenoxy]‐N‐methylpyridine‐2‐carboxamide monohydrate]
Concentration ([1]; dosed eye): BLQ (<1) ng/g | Concentration ([1]; nondosed eye): BLQ (<1) ng/g | AUC0‐t ([2]; choroid/sclera of dosed eye): 15 300 h × ng/g | AUC0‐∞ ([2]; choroid/sclera of dosed eye): 16 400 h × ng/g | Concentration ([2]; dosed eye, 1.5 h): 552 ng/g | Concentration ([2]; dosed eye, 4 h): 340 ng/g | Concentration ([2]; nondosed eye, 1.5 h): 29.1 ng/g | Concentration ([2]; nondosed eye, 4 h): 72.3 ng/g | choroid/sclera concentration ([2]; dosed eye): 1310 ng/g | choroid/sclera concentration ([2]; nondosed eye): 129 ng/g | AUC0‐t ([2]; retina of dosed eye): 517 ng·h/g | Concentration ([3]; choroid, nondosed eye): BLQ (<3) ng/g | Concentration ([3]; cornea, dosed eye): 350 ng/g | Concentration ([3]; cornea, nondosed eye): BLQ (<3) ng/g | Concentration ([3]; iris/ciliary body, dosed eye): 49.4 ng/g | Concentration ([3]; iris/ciliary body, nondosed eye): BLQ (<3) ng/g | Concentration ([3]; retina, dosed eye): BLQ (<3) ng/g | Concentration ([3]; retina, nondosed eye): BLQ (<3) ng/g | AUC ([4]; in vivo, AUC0‐t, plasma, single ocular instillation, regorafenib 21.2 mg/mL or pazopanib 4.9 mg/mL, 10 μL/eye): 1010 ng·h/mL | AUC ([4]; in vivo, AUC0‐∞, plasma, single ocular instillation, regorafenib 21.2 mg/mL or pazopanib 4.9 mg/mL, 10 μL/eye): 1060 ng·h/mL | Cmax [4, 10]: 1310 ng/g | Cmax [4, 11]: 38.6 ng/mL | Cmax ([4]; in vivo, retina of dosed eye, single ocular instillation, regorafenib 21.2 mg/mL or pazopanib 4.9 mg/mL, 10 μL/eye): 28 ng/g | half-life [4, 10]: 29.7 h | half-life [4, 11]: 23.9 h | Tmax ([4]; in vivo, tmax): 0.5 h | Tmax ([4]; in vivo, tmax, plasma, single ocular instillation, regorafenib 21.2 mg/mL or pazopanib 4.9 mg/mL, 10 μL/eye): 7 h | Tmax ([4]; in vivo, tmax, retina of dosed eye, single ocular instillation, regorafenib 21.2 mg/mL or pazopanib 4.9 mg/mL, 10 μL/eye): 7 h | Clinical efficacy of eye‐drop formulation in neovascular AMD [5]: lack of efficacy

Compound: Aflibercept: 40 mg/mL EYLEA Injection For Intravitreal Injection; anti‐VEGF agent, positive control
Percentage of Grade 4 lesion ([6]; Day 8, pazopanib eye‐drops 5.0 mg/mL four times daily): 4.2% | Percentage of Grade 4 lesion ([6]; Day 15, pazopanib eye‐drops 5.0 mg/mL four times daily): 4.2% | Percentage of Grade 4 lesion ([6]; Day 22, pazopanib eye‐drops 5.0 mg/mL four times daily): 4.2% | Percentage of Grade 4 lesion ([6]; Day 29, pazopanib eye‐drops 5.0 mg/mL four times daily): 4.2% | Change in incidence of Grade 4 lesions between Day‐1 and Day35 [6]: significant efficacy had been maintained until Day35

AUC0‐t ([2]; choroid/sclera of dosed eye): 42 100 h × ng/g | AUC0‐∞ ([2]; choroid/sclera of dosed eye): 112 000 h × ng/g | concentration at 0.5 h [2, 12]: 293 ng/g | half-life [2, 12]: 245 h | concentration at 0.5 h ([2]; choroid/sclera of the nondosed eye): 11.3 ng/g | Tmax ([2]; plasma): 0.5 h | half-life ([2]; plasma): 20.1 h | AUC ([2]; plasma, AUC0‐t): 1280 ng·h/mL | AUC ([2]; plasma, AUC0‐∞): 1300 ng·h/mL | AUC0‐t ([2]; retina of dosed eye): 3450 ng·h/g | AUC0‐∞ ([2]; retina of dosed eye): 6660 ng·h/g | Tmax ([2]; retina of the dosed eye): 120 h | half-life ([2]; retina of the dosed eye, 4.9 mg/mL (10 μL/eye)): 159 h | Concentration ([3]; cornea, nondosed eye): BLQ (<1) ng/g | Tmax [4, 12]: 4 h
Compound: Cc1ccc(Nc2nccc(N(C)c3ccc4c(C)n(C)nc4c3)n2)cc1S(N)(=O)=O.Cl [Pazopanib, 5‐[[4‐[(2,3‐dimethylindazol‐6‐yl)‐methylamino]pyrimidin‐2‐yl]amino]‐2‐methylbenzenesulfonamide hydrochloride]
Change in incidence of Grade 4 lesions between Day‐1 and Day35 [6]: no significant difference | Binding to melanin [7]: strongly binds to melanin | Clinical efficacy of eye‐drop formulation in neovascular AMD [5]: lack of efficacy | Effect on angiogenesis and vascular hyperpermeability [8]: reduced angiogenesis and vascular hyperpermeability | Suppression of VEGF‐induced fluorescein leakage in the posterior eye tissues [9]: failed to suppress

Reference: PMC6864407 (Pharmacology Research & Perspectives, 2019)
